Read-outs that look alike come from different tables or passages of the source.
How the values were obtained:
[1] = system: methamphetamine-induced stereotypy; experiment: Potentiation of methamphetamine-induced stereotypy; type: in vivo, male Wistar HLA rats; design: key: ---: Marked antagonism; --: Moderate antagonism; -: Slight antagonism; 0: No interaction; +: Slight potentiation; ++: Moderate potentiation; +++: Marked potentiation; settings: methamphetamine 2 mg/kg i.p.
Protocol: 1. Potentiation of methamphetamine-induced stereotypy
This test was carried out by a modified method of R. T. Naylor (Life Sci., Vol. 10, page 909, 1971).
To male Wistar HLA rats, weighing 200 to 250 g (each group: 6 rats), were intraperitoneally administered the compounds to be tested. After 20 minutes, methamphetamine (2 mg/kg) was intraperitoneally administered to the test animals, and then the appeared stereotypy was observed. The effects of the test compounds were evaluated by the intensity of the stereotypy and the termination thereof.

Acute toxicity, mice = settings: mouse, in vivo; for LD50 at 96 h: observed 4 days
Excerpt: (§1) Male and female STD-dd Y mice, weighing 20 to 22 g (each group: 10 mice) and male Wistar HLA rats, weighing 250 to 300 g (each group: 10 to 20 rats) were used.

muscle relaxant activity = experiment: Muscle relaxant activity, rats; type: in vivo; settings: Rattus norvegicus, read-out: ED50 value, muscle relaxant activity
[2] = system: conditioned avoidance response; experiment: Inhibiting activity of conditioned avoidance response, mice; type: in vivo; settings: Mus musculus, po, read-out: ED50 value, inhibiting activity of conditioned avoidance response
Acute toxicity, rats = settings: rat, in vivo, male, observed 4 days
Excerpt: as §1

catalepsy = experiment: Cataleptogenic activity, rats; type: in vivo; settings: Rattus norvegicus, po, read-out: ED50 value, cataleptogenic activity
Excerpt: The compounds of the present invention show the same central nervous system depressing pattern as the existing neuroleptics, such as an inhibiting activity of locomotion, an inhibiting activity of conditioned avoidance response, a cataleptogenic activity, a muscle relaxant activity, an inhibiting activity of self-stimulation, and an anti-methamphetamine activity in terms of locomotor activity.

self-stimulation = experiment: Inhibiting activity of self-stimulation, rats; type: in vivo; settings: Rattus norvegicus, po, read-out: ED50 value, inhibiting activity of self-stimulation
Excerpt: 8) J. Olds et al; J. Comp. Physiol. Psychol., Vol. 47, page

locomotion [3] = experiment: Inhibiting activity of locomotion, mice (Animex method); type: in vivo; settings: Mus musculus, po, read-out: ED50 value, inhibiting activity of locomotion
locomotion [4] = experiment: Inhibiting activity of locomotion, rats (Open-field method); type: in vivo; settings: Rattus norvegicus, read-out: ED50 value, inhibiting activity of locomotion
Excerpt: 3) Open-field method [C.S. Hall; J. Comp. Physiol. Psychol.

[5] = system: conditioned avoidance response; experiment: Inhibiting activity of conditioned avoidance response, rats (Shuttle box method); type: in vivo; settings: Rattus norvegicus, po, read-out: ED50 value, inhibiting activity of conditioned avoidance response

Structure (SMILES): COc1ccc2c(c1)C1CN(CCCC(=O)c3ccc(F)cc3)CCC1N2.Cl.Cl (stereo not shown) [compound 4, 8-Methoxy-2-[γ-(p-fluorobenzoyl)propyl]-2,3,4,4a,5,9b-hexahydro-1H-pyrido[4,3-b]indole dihydrochloride]
- Stereotypy Intensity ([1]; 1.0 mg/kg i.p.): 0
- Stereotypy Termination ([1]; 1.0 mg/kg i.p.): 0
- Stereotypy Intensity ([1]; 2.0 mg/kg i.p.): 0
- Stereotypy Termination ([1]; 2.0 mg/kg i.p.): 0
- Stereotypy Intensity ([1]; 5.0 mg/kg i.p.): 0
- Stereotypy Termination ([1]; 5.0 mg/kg i.p.): 0
- Stereotypy Intensity ([1]; 10.0 mg/kg i.p.): --
- Stereotypy Termination ([1]; 10.0 mg/kg i.p.): 0

Structure (SMILES): CCc1ccc2c(c1)C1CN(CCCC(=O)c3ccc(F)cc3)CCC1N2.Cl.Cl (stereo not shown) [B, 8-Ethyl-2-[γ-(p-fluorobenzoyl)propyl]-2,3,4,4a,5,9b-hexahydro-1H-pyrido[4,3-b]indole dihydrochloride]
- Stereotypy Intensity ([1]; 2.0 mg/kg i.p.): +
- Stereotypy Termination ([1]; 2.0 mg/kg i.p.): +
- Stereotypy Intensity ([1]; 5.0 mg/kg i.p.): +++
- Stereotypy Termination ([1]; 5.0 mg/kg i.p.): +++
- Stereotypy Intensity ([1]; 10.0 mg/kg i.p.): +++
- Stereotypy Termination ([1]; 10.0 mg/kg i.p.): +++

Structure (SMILES): Cc1ccc2[nH]c3c(c2c1)CN(CCCC(=O)c1ccc(F)cc1)CC3.Cl [compound 1, 8-Methyl-2-[γ-(p-fluorobenzoyl)propyl]-2,3,4,5-tetrahydro-1H-pyrido[4,3-b]indole hydrochloride]
- Stereotypy Intensity ([1]; 1.0 mg/kg i.p.): 0
- Stereotypy Termination ([1]; 1.0 mg/kg i.p.): 0
- Stereotypy Intensity ([1]; 2.0 mg/kg i.p.): 0
- Stereotypy Termination ([1]; 2.0 mg/kg i.p.): 0
- Stereotypy Intensity ([1]; 5.0 mg/kg i.p.): 0
- Stereotypy Termination ([1]; 5.0 mg/kg i.p.): 0
- Stereotypy Intensity ([1]; 10.0 mg/kg i.p.): 0
- Stereotypy Termination ([1]; 10.0 mg/kg i.p.): 0

Structure (SMILES): Cl.Cl.O=C(CCCN1CCC2Nc3ccc(F)cc3C2C1)c1ccc(F)cc1 (stereo not shown) [compound 3, 8-Fluoro-2-[γ-(p-fluorobenzoyl)propyl]-2,3,4,4a,5,9b-hexahydro-1H-pyrido[4,3-b]indole dihydrochloride]
- Stereotypy Intensity ([1]; 1.0 mg/kg i.p.): 0
- Stereotypy Termination ([1]; 1.0 mg/kg i.p.): 0
- Stereotypy Intensity ([1]; 2.0 mg/kg i.p.): 0
- Stereotypy Termination ([1]; 2.0 mg/kg i.p.): 0
- Stereotypy Intensity ([1]; 5.0 mg/kg i.p.): -
- Stereotypy Termination ([1]; 5.0 mg/kg i.p.): -
- Stereotypy Intensity ([1]; 10.0 mg/kg i.p.): --
- Stereotypy Termination ([1]; 10.0 mg/kg i.p.): --

Structure (SMILES): CCN1c2ccc(C)cc2C2CN(CCCC(=O)c3ccc(F)cc3)CCC21.Cl.Cl (stereo not shown) [D, 5-Ethyl-8-methyl-2-[γ-(p-fluorobenzoyl)propyl]-2,3,4,4a,5,9b-hexahydro-1H-pyrido[4,3-b]indole dihydrochloride]
- Stereotypy Intensity ([1]; 1.0 mg/kg i.p.): 0
- Stereotypy Termination ([1]; 1.0 mg/kg i.p.): 0
- Stereotypy Intensity ([1]; 2.0 mg/kg i.p.): 0
- Stereotypy Termination ([1]; 2.0 mg/kg i.p.): 0
- Stereotypy Intensity ([1]; 5.0 mg/kg i.p.): +
- Stereotypy Termination ([1]; 5.0 mg/kg i.p.): ++
- Stereotypy Intensity ([1]; 10.0 mg/kg i.p.): +++
- Stereotypy Termination ([1]; 10.0 mg/kg i.p.): +++

Structure (SMILES): O=C(CCCN1CCC(O)(c2ccc(Cl)cc2)CC1)c1ccc(F)cc1 [Haloperidol]
- Stereotypy Intensity ([1]; 0.1 mg/kg i.p.): 0
- Stereotypy Termination ([1]; 0.1 mg/kg i.p.): -
- Stereotypy Intensity ([1]; 0.2 mg/kg i.p.): -
- Stereotypy Termination ([1]; 0.2 mg/kg i.p.): --
- Stereotypy Intensity ([1]; 0.5 mg/kg i.p.): -- -
- Stereotypy Termination ([1]; 0.5 mg/kg i.p.): --
- Stereotypy Intensity ([1]; 1.0 mg/kg i.p.): ---
- Stereotypy Termination ([1]; 1.0 mg/kg i.p.): --

Structure (SMILES): Cc1ccc2c(c1)C1CN(CCCC(=O)c3ccc(F)cc3)CCC1N2C.Cl.Cl (stereo not shown) [C, 5,8-Dimethyl-2-[γ-(p-fluorobenzoyl)propyl]-2,3,4,4a,5,9b-hexahydro-1H-pyrido[4,3-b]indole dihydrochloride]
- Stereotypy Intensity ([1]; 1.0 mg/kg i.p.): 0
- Stereotypy Termination ([1]; 1.0 mg/kg i.p.): 0
- Stereotypy Intensity ([1]; 2.0 mg/kg i.p.): 0
- Stereotypy Termination ([1]; 2.0 mg/kg i.p.): 0
- Stereotypy Intensity ([1]; 5.0 mg/kg i.p.): ++
- Stereotypy Termination ([1]; 5.0 mg/kg i.p.): ++
- Stereotypy Intensity ([1]; 10.0 mg/kg i.p.): ++
- Stereotypy Termination ([1]; 10.0 mg/kg i.p.): +++

Structure (SMILES): CN1CCN(C2=Nc3cc(Cl)ccc3Nc3ccccc32)CC1 [Clozapine, 8-chloro-11-(4-methyl-1-piperazinyl)-5H-dibenzo[b,e][1,4]-diazepine]
- LD50 at 96 h (Acute toxicity, mice; iv, male): 37 mg/kg
- LD50 at 96 h (Acute toxicity, mice; po, female): 212 mg/kg
- LD50 at 96 h (Acute toxicity, mice; po, male): 202 mg/kg
- LD50 at 96 h (Acute toxicity, mice; sc, male): 194 mg/kg
- ED50 (muscle relaxant activity; ip, rats, i.p.): 5.41 mg/kg
- ED50 (muscle relaxant activity; po, rats, p.o.): 28.1 mg/kg
- ED50 ([2]; mice, p.o.): 9.75 mg/kg
- LD50 at 96 h (Acute toxicity, rats; iv): 42 mg/kg
- LD50 at 96 h (Acute toxicity, rats; po): 251 mg/kg
- LD50 at 96 h (Acute toxicity, rats; sc): 272 mg/kg
- ED50 (catalepsy; rats, p.o.): > 100 mg/kg
- ED50 (self-stimulation; rats, p.o.): 61.8 mg/kg
- ED50 (locomotion [3]; mice, p.o.): 7.5 mg/kg
- ED50 (locomotion [4]; ip, rats, i.p.): 5.54 mg/kg
- ED50 (locomotion [4]; po, rats, p.o.): 27.4 mg/kg
- ED50 ([5]; rats, p.o.): 34.7 mg/kg

Structure (SMILES): CN(C)CCCN1c2ccccc2Sc2ccc(Cl)cc21 [Chlorpromazine]
- LD50 at 168 h (Acute toxicity, mice; po, male, observed 7 days): 476 mg/kg
- ED50 (muscle relaxant activity; ip): 2.07 mg/kg
- ED50 (muscle relaxant activity; po): 4.38 mg/kg
- ED50 [2]: 5.65 mg/kg
- Stereotypy Intensity ([1]; 2.0 mg/kg i.p.): 0
- Stereotypy Termination ([1]; 2.0 mg/kg i.p.): 0
- Stereotypy Intensity ([1]; 5.0 mg/kg i.p.): --
- Stereotypy Termination ([1]; 5.0 mg/kg i.p.): +
- Stereotypy Intensity ([1]; 10.0 mg/kg i.p.): ---
- Stereotypy Termination ([1]; 10.0 mg/kg i.p.): ---
- ED50 (catalepsy): 16.1 mg/kg
- ED50 (self-stimulation): 7.04 mg/kg
- ED50 (locomotion [3]): 6.34 mg/kg
- ED50 (locomotion [4]; ip): 2.41 mg/kg
- ED50 (locomotion [4]; po): 9.88 mg/kg
- ED50 [5]: 7.04 mg/kg

Structure (SMILES): Cl.Cl.O=C(CCCN1CCC2Nc3ccccc3C2C1)c1ccc(F)cc1 (stereo not shown) [compound 2, 2-[γ-(p-Fluorobenzoyl)propyl]-2,3,4,4a,5,9b-hexahydro-1H-pyrido[4,3-b]indole dihydrochloride]
- Stereotypy Intensity ([1]; 1.0 mg/kg i.p.): 0
- Stereotypy Termination ([1]; 1.0 mg/kg i.p.): 0
- Stereotypy Intensity ([1]; 2.0 mg/kg i.p.): 0
- Stereotypy Termination ([1]; 2.0 mg/kg i.p.): 0
- Stereotypy Intensity ([1]; 5.0 mg/kg i.p.): 0
- Stereotypy Termination ([1]; 5.0 mg/kg i.p.): 0
- Stereotypy Intensity ([1]; 10.0 mg/kg i.p.): -
- Stereotypy Termination ([1]; 10.0 mg/kg i.p.): 0

— patent US3983239A, “Hexahydro-γ-carboline derivatives and their salts” (priority 1974, dated 1976)
